Results published in patent publication US20150125893A1, “TRANSPORTER BIOSENSORS” (Carnegie Institute of Washington, priority 2013, published 2015).

Legend:
OzTrac-MSL10 = OzTrac-MSL10 FRET osmosensor expressed in yeast cells, response to osmolytes; type: cell-based, Arabidopsis thaliana; conditions: for FRET emission ratio: addition of 1M osmolyte; for FRET emission ratio / FRET response to osmolyte: yeast cells; for FRET response to osmolyte: hyper-osmotic stress, NaCl at 1M
Description: Fusion proteins comprising the mechanisensitive channel small conductance-like 10 (AtMSL10) were constructed, potentially creating an osmosensor. […] This t9AFP-AtMSL10-t7TFPt9 protein is named as OzTrac-MSL10. […] Upon treatment of 1 M NaCl, which induces hyper-osmotic stress, AtMSL10 will undergo a conformational change into the closed state which causes the FRET pairs to come closer, resulting in a higher FRET.
The OzTrac-MSL10 FRET sensor can detect a range of osmolarity concentration changes. […] The calculation of the dissociation constant is around 0.5 M for NaCl and KCl, and around 1M for […] and […].

[1] = tested on: NRT1.1 T101A mutant fusion protein; experiment: Nitrate sensor fluorescence response in yeast, NRT1.1 T101A low affinity mutant fusion protein; type: cell-based, Arabidopsis thaliana
Description: Yeast strains used in this study were BJ5465 [MATa, ura3-52, trp1, leu2Δ1, his3Δ200, pep4::HIS3, prb1Δ1.6R, cant GAL+] obtained from Yeast Genetic Stock Center (University of California, Berkeley, Calif.). Yeast was transformed using the lithium acetate method and selected on solid YNB (minimal yeast medium without nitrogen; Difco) supplemented with 2% glucose and -Ura DropOut (Clontech). Single colonies were grown in 5 mL liquid YNB supplemented with 2% glucose and -Ura DropOut under agitation (220 rpm) at 30° C. until OD600 nm˜0.8 was reached. The liquid cultures were subcultured by diluted to OD600 nm 0.01 in the same liquid medium and conditions at 30° C. until OD600 nm 0.2 was reached. […] Fluorescence was measured by a fluorescence plate reader (M1000, TECAN), in bottom reading mode using a 7.5 nm bandwidth for both excitation and emission. To measure fluorescence response to substrate addition, 100 μL of substrate (dissolved in MES buffer as 500% stock solution) were added to 100 μL of cells in a 96-well plate (Greiner). Fluorescence from cultures harboring yeast expression vectors pDRFlip30, 39, and 42 was measured as emission at λem=470-570 nm using excitation at λexc=428 nm and fluorescence using yeast expression vector pDRFlip34 and 35 was measured as emission at λem=470-570 nm using excitation at λexc=440 nm.

[2] = tested on: CHL1 nitrate transporter (Aphrodite-t9 N-terminus, Teal-t9 C-terminus)
Description: (§1) All transporter and sensor constructs were inserted in the yeast expression vector pDRFlip30, 34, 35, 39, 42-GW. The details of the vectors are as follows: pDRFlip30 using pair of N-terminal fluorescent protein Aphordite t9 (AFPt9), 9 amino acids truncated of C-term of AFP, and C-terminal fluorescent protein monomeric Cerulean (mCer); pDRFlip 39 using pair of N-terminally fused fluorescent protein enhanced dimer Aphrodite t9 (edAFPt9) and C-terminal fluorescent protein enhanced dimer, 7 amino acids and 9 amino acids truncated of N-term and C-term of eCyan (t7.ed.eCFPt9), respectively; pDRFlip 42 using pair of N-terminal fluorescent protein Citrine and C-terminal fluorescent protein mCer; pDRFlip 34 using pair of N-terminal fluorescent protein AFPt9 and C-terminal fluorescent protein t7.Teal.t9 (t7.TFP.t9), and pDRFlip 35 using pair of N-terminal fluorescent protein AFPt9 and C-terminal fluorescent protein mTFPt9. All vectors contained […] replication origin, GATEWAY™ cassette-attR1-CmR-ccdB gene-attR2 sequence, which is between the pair of fluorescent proteins, a PMA1 promoter fragment, an ADH terminator, different pairs of fluorescent proteins, and the URA cassette for selection in yeast. The full length ORF of NRT1.1 and different mutants of NRT1.1, such as T101A, T101D, P492L from Arabidopsis (At1g12110) in TOPO GATEWAY™ entry vector were used to prepare the nitrate sensors of the present invention. The yeast vector harboring the constructs was then created by the GATEWAY™ LR reaction between different forms of pTOPO-NRT and different pDRFlip-GWs, following manufacturer's instructions..
(§2) Yeast strains used in this study were BJ5465 [MATa, ura3-52, trp1, leu2Δ1, his3Δ200, pep4::HIS3, prb1Δ1.6R, cant GAL+] obtained from Yeast Genetic Stock Center (University of California, Berkeley, Calif.). Yeast was transformed using the lithium acetate method and selected on solid YNB (minimal yeast medium without nitrogen; Difco) supplemented with 2% glucose and -Ura DropOut (Clontech).

[3] = tested on: pDRFlip302 (NRT1.1 with AFPt9 and mCerulean)
Description: as §1, §2

[4] = tested on: CHL1 nitrate transporter (AFPt9 in central loop, Teal-t9 in loop between helices 10 and 11)
Description: as §1, §2

SMILES | FRET emission ratio (OzTrac-MSL10) | FRET response to osmolyte (OzTrac-MSL10) | other results
OC[C@@H](O)[C@@H](O)[C@H](O)[C@@H](O)CO [sorbitol] | higher FRET emission ratio | increased the FRET | 
O=[N+]([O-])[O-].[K+] [KNO3] |  |  | sensor response ([1]; high levels of KNO3): only responds to addition of high levels; sensor response ([1]; low levels of KNO3): does not respond
OCC(O)CO [glycerol] | higher FRET emission ratio | increased the FRET | 
[Cl-].[Na+] [NaCl, sodium chloride] | higher FRET emission ratio | dramatic FRET change | emission spectrum change (OzTrac-MSL10; 1M NaCl, excitation at 440 nm): decrease in fluorescence intensity of donor and increase of acceptor; FRET change with serial concentrations (OzTrac-MSL10; serial NaCl concentrations (mM), excitation at 440 nm): concentration-dependent FRET changes
O=[N+]([O-])O [nitrate] |  |  | change in FRET on addition of nitrate [2]: does not induce a change in FRET; change in FRET on addition of nitrate [3]: does not induce a change in FRET; change in FRET on addition of nitrate [4]: does not induce a change in FRET
[Cl-].[K+] [KCl, potassium chloride] | higher FRET emission ratio | increased the FRET | 
